According to patent US9125913B2, “Bcl-2-selective apoptosis-inducing agents for the treatment of cancer and immune diseases” (AbbVie Inc., priority 2008, dated 2015):

Tested on: GST-Bcl-2
Assay: TR-FRET binding assay, Bcl-2
Settings: TR-FRET Ki values
In short: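 Ki values come from Wang's competitive-binding equation applied to TR-FRET signal (excitation 340/35 nm; emission 520/525 nm F-Bak peptide, 495/510 nm Tb antibody). Protein, probe and antibody incubated with compound 3 h at room temperature; dilution series began at 50 μM as 2× stock in 10% DMSO.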

SMILES | Binding selectivity ratio (Bcl-XL Ki/Bcl-2 Ki)
CN1CCC(Nc2ccc(S(=O)(=O)NC(=O)c3ccc(N4CCN(CC5=C(c6ccc(Cl)cc6)CC(C)(C)CC5)CC4)cc3Oc3cccc4[nH]cnc34)cc2[N+](=O)[O-])CC1 [EXAMPLE 418, 2-(1H-benzimidazol-4-yloxy)-4-(4-{[2-(4-chlorophenyl)-4,4-dimethylcyclohex-1-en-1-yl]methyl}piperazin-1-yl)-N-({4-[(1-methylpiperidin-4-yl)amino]-3-nitrophenyl}sulfonyl)benzamide] | 404.7
CN1CCN(Nc2ccc(S(=O)(=O)NC(=O)c3ccc(N4CCN(CC5=C(c6ccc(Cl)cc6)CC(C)(C)CC5)CC4)cc3Oc3cccc4[nH]ccc34)cc2S(=O)(=O)C(F)(F)F)CC1 [EXAMPLE 215, 4-(4-{[2-(4-chlorophenyl)-4,4-dimethylcyclohex-1-en-1-yl]methyl}piperazin-1-yl)-2-(1H-indol-4-yloxy)-N-({4-[(4-methylpiperazin-1-yl)amino]-3-[(trifluoromethyl)sulfonyl]phenyl}sulfonyl)benzamide] | 120.8
O=C(NS(=O)(=O)c1ccc(NCC2CCOCC2)c(S(=O)(=O)C(F)(F)F)c1)c1ccc(N2CCN(Cc3ccccc3-c3ccc(Cl)cc3)CC2)cc1Oc1ccccc1 [Example 163, 4-{4-[(4′-chloro-1,1′-biphenyl-2-yl)methyl]piperazin-1-yl}-2-phenoxy-N-({4-[(tetrahydro-2H-pyran-4-ylmethyl)amino]-3-[(trifluoromethyl)sulfonyl]phenyl}sulfonyl)benzamide] | >117.5
CN(C)CCOc1cccc(-c2ccc(Cl)cc2)c1CN1CCN(c2ccc(C(=O)NS(=O)(=O)c3ccc(NC4CCN(C5CCOCC5)CC4)c([N+](=O)[O-])c3)c(Oc3cccc4[nH]ccc34)c2)CC1 [EXAMPLE 199, 4-[4-({4′-chloro-3-[2-(dimethylamino)ethoxy]-1,1′-biphenyl-2-yl}methyl)piperazin-1-yl]-2-(1H-indol-4-yloxy)-N-({3-nitro-4-[(1-tetrahydro-2H-pyran-4-ylpiperidin-4-yl)amino]phenyl}sulfonyl)benzamide] | 369.8
COCCNC(=O)c1ccc(S(=O)(=O)NC(=O)c2ccc(N3CCN(CC4=C(c5ccc(Cl)cc5)CC(C)(C)CC4)CC3)cc2Oc2ccc3[nH]ccc3c2)cc1 [EXAMPLE 332, 4-(4-{[2-(4-chlorophenyl)-4,4-dimethylcyclohex-1-en-1-yl]methyl}piperazin-1-yl)-2-(1H-indol-5-yloxy)-N-[(4-{[(2-methoxyethyl)amino]carbonyl}phenyl)sulfonyl]benzamide] | >52.5
CC1(C)CCC(CN2CCN(c3ccc(C(=O)NS(=O)(=O)c4ccc(NCC5CN(CC(F)F)CCO5)c([N+](=O)[O-])c4)c(Oc4cccc5[nH]cnc45)c3)CC2)=C(c2ccc(Cl)cc2)C1 (stereo not shown) [EXAMPLE 415, 2-(1H-benzimidazol-4-yloxy)-4-(4-{[2-(4-chlorophenyl)-4,4-dimethylcyclohex-1-en-1-yl]methyl}piperazin-1-yl)-N-{[4-({[4-(2,2-difluoroethyl)morpholin-2-yl]methyl}amino)-3-nitrophenyl]sulfonyl}benzamide] | 17326.89211
CC1(C)CCC(CN2CCN(c3ccc(C(=O)NS(=O)(=O)c4ccc(NCC5CN(C6CC6)CCO5)c([N+](=O)[O-])c4)c(Oc4cccc5[nH]ncc45)c3)CC2)=C(c2ccc(Cl)cc2)C1 (stereo not shown) [EXAMPLE 411, 4-(4-{[2-(4-chlorophenyl)-4,4-dimethylcyclohex-1-en-1-yl]methyl}piperazin-1-yl)-N-[(4-{[(4-cyclopropylmorpholin-2-yl)methyl]amino}-3-nitrophenyl)sulfonyl]-2-(1H-indazol-4-yloxy)benzamide] | 2352
CC1(C)CCC(CN2CCN(c3ccc(C(=O)NS(=O)(=O)c4cnc(NCC5CCOCC5)c(Br)c4)c(Oc4cccc5[nH]ccc45)c3)CC2)=C(c2ccc(Cl)cc2)C1 [EXAMPLE 325, N-({5-bromo-6-[(tetrahydro-2H-pyran-4-ylmethyl)amino]pyridin-3-yl}sulfonyl)-4-(4-{[2-(4-chlorophenyl)-4,4-dimethylcyclohex-1-en-1-yl]methyl}piperazin-1-yl)-2-(1H-indol-4-yloxy)benzamide] | >283.1
CC1(C)CCC(CN2CCN(c3ccc(C(=O)NS(=O)(=O)c4cccc(C(=O)NCC5CCOCC5)c4)c(Oc4ccc5[nH]ccc5c4)c3)CC2)=C(c2ccc(Cl)cc2)C1 [EXAMPLE 345, 4-(4-{[2-(4-chlorophenyl)-4,4-dimethylcyclohex-1-en-1-yl]methyl}piperazin-1-yl)-2-(1H-indol-5-yloxy)-N-[(3-{[(tetrahydro-2H-pyran-4-ylmethyl)amino]carbonyl}phenyl)sulfonyl]benzamide] | >575.9
CC1(C)CCC(CN2CCN(c3ccc(C(=O)NS(=O)(=O)c4ccc(NCC5CCOCC5)c([N+](=O)[O-])c4)c(Oc4ccc5[nH]ccc5c4)c3)CC2CO)=C(c2ccc(Cl)cc2)C1 (stereo not shown) [EXAMPLE 236, 4-[4-{[2-(4-chlorophenyl)-4,4-dimethylcyclohex-1-en-1-yl]methyl}-3-(hydroxymethyl)piperazin-1-yl]-2-(1H-indol-5-yloxy)-N-({3-nitro-4-[(tetrahydro-2H-pyran-4-ylmethyl)amino]phenyl}sulfonyl)benzamide] | >1787.6
CC1(C)CCC(CN2CCN(c3ccc(C(=O)NS(=O)(=O)c4ccc(NC5CCN(Cc6nccs6)CC5)c([N+](=O)[O-])c4)c(Oc4ccc5[nH]ccc5c4)c3)CC2)=C(c2ccc(Cl)cc2)C1 [EXAMPLE 230, 4-(4-{[2-(4-chlorophenyl)-4,4-dimethylcyclohex-1-en-1-yl]methyl}piperazin-1-yl)-2-(1H-indol-5-yloxy)-N-[(3-nitro-4-{[1-(1,3-thiazol-2-ylmethyl)piperidin-4-yl]amino}phenyl)sulfonyl]benzamide] | >74.8
CC1(C)CCC(CN2CCN(c3ccc(C(=O)NS(=O)(=O)c4cnc(OCC5CCOCC5)c(Br)c4)c(Oc4cccc5[nH]ccc45)c3)CC2)=C(c2ccc(Cl)cc2)C1 [EXAMPLE 364, N-{[5-bromo-6-(tetrahydro-2H-pyran-4-ylmethoxy)pyridin-3-yl]sulfonyl}-4-(4-{[2-(4-chlorophenyl)-4,4-dimethylcyclohex-1-en-1-yl]methyl}piperazin-1-yl)-2-(1H-indol-4-yloxy)benzamide] | 12197.3
O=C(NS(=O)(=O)c1ccc(NC2CCN(C3CCOCC3)CC2)c([N+](=O)[O-])c1)c1ccc(N2CCN(CC3=C(c4ccc(Cl)cc4)CCC(O)C3)CC2)cc1Oc1ccc2[nH]ccc2c1 (stereo not shown) [EXAMPLE 225, 4-(4-{[2-(4-chlorophenyl)-5-hydroxycyclohex-1-en-1-yl]methyl}piperazin-1-yl)-2-(1H-indol-5-yloxy)-N-({3-nitro-4-[(1-tetrahydro-2H-pyran-4-ylpiperidin-4-yl)amino]phenyl}sulfonyl)benzamide] | >348.2
CC1(C)CCC(CN2CCN(c3ccc(C(=O)NS(=O)(=O)c4ccc(OC[C@H]5COCCO5)c([N+](=O)[O-])c4)c(Oc4ccc5[nH]ccc5c4)c3)CC2)=C(c2ccc(Cl)cc2)C1 [EXAMPLE 346, 4-(4-{[2-(4-chlorophenyl)-4,4-dimethylcyclohex-1-en-1-yl]methyl}piperazin-1-yl)-N-({4-[(2R)-1,4-dioxan-2-ylmethoxy]-3-nitrophenyl}sulfonyl)-2-(1H-indol-5-yloxy)benzamide] | 11405.2
CC1(C)CCC(CN2CCN(c3ccc(C(=O)NS(=O)(=O)c4ccc(NCCCN5CCS(=O)(=O)CC5)c([N+](=O)[O-])c4)c(Oc4cccc5[nH]ccc45)c3)CC2)=C(c2ccc(Cl)cc2)C1 [EXAMPLE 295, 4-(4-{[2-(4-chlorophenyl)-4,4-dimethylcyclohex-1-en-1-yl]methyl}piperazin-1-yl)-N-[(4-{[3-(1,1-dioxidothiomorpholin-4-yl)propyl]amino}-3-nitrophenyl)sulfonyl]-2-(1H-indol-4-yloxy)benzamide] | 599.4
CC1(C)CCC(CN2CCN(c3ccc(C(=O)NS(=O)(=O)c4cnc(OCC5CCOC5)c(Cl)c4)c(Oc4cccc5[nH]ncc45)c3)CC2)=C(c2ccc(Cl)cc2)C1 (stereo not shown) [EXAMPLE 420, 4-(4-{[2-(4-chlorophenyl)-4,4-dimethylcyclohex-1-en-1-yl]methyl}piperazin-1-yl)-N-{[5-chloro-6-(tetrahydrofuran-3-ylmethoxy)pyridin-3-yl]sulfonyl}-2-(1H-indazol-4-yloxy)benzamide] | 1153
CC1(C)CCC(CN2CCN(c3ccc(C(=O)NS(=O)(=O)c4ccc(NCC5(N)CCOCC5)c([N+](=O)[O-])c4)c(Oc4ccc5[nH]ccc5c4)c3)CC2)=C(c2ccc(Cl)cc2)C1 [EXAMPLE 188, N-[(4-{[(4-aminotetrahydro-2H-pyran-4-yl)methyl]amino}-3-nitrophenyl)sulfonyl]-4-(4-{[2-(4-chlorophenyl)-4,4-dimethylcyclohex-1-en-1-yl]methyl}piperazin-1-yl)-2-(1H-indol-5-yloxy)benzamide] | 1135.4
CN(C)CCCNc1ccc(S(=O)(=O)NC(=O)c2ccc(N3CCN(Cc4ccccc4-c4ccc(Cl)cc4)CC3)cc2Oc2cccc3cnccc23)cc1[N+](=O)[O-] [Example 42, 4-{4-[(4′-chloro-1,1′-biphenyl-2-yl)methyl]piperazin-1-yl}-N-[(4-{[3-(dimethylamino)propyl]amino}-3-nitrophenyl)sulfonyl]-2-(isoquinolin-5-yloxy)benzamide] | 80
CC1(C)CCC(CN2CCN(c3ccc(C(=O)NS(=O)(=O)c4ccc(NCC5(N)CCOCC5)c([N+](=O)[O-])c4)c(Oc4ccc5[nH]ccc5c4)c3)CC2CO)=C(c2ccc(Cl)cc2)C1 (stereo not shown) [EXAMPLE 237, N-[(4-{[(4-aminotetrahydro-2H-pyran-4-yl)methyl]amino}-3-nitrophenyl)sulfonyl]-4-[4-{[2-(4-chlorophenyl)-4,4-dimethylcyclohex-1-en-1-yl]methyl}-3-(hydroxymethyl)piperazin-1-yl]-2-(1H-indol-5-yloxy)benzamide] | 668.3
